Where a SMILES comes first, the peptide text is derived from it. Bridges are numbered along the chain shown (N, C = ends). [ ]: non-standard residue; d: D form. The star is where a group is joined. hPhe(3,5-F2-4-CF3) = N[C@@H](CCc1cc(F)c(C(F)(F)F)c(F)c1)C(=O)O; hPhe(3-Cl-4-CF3) = N[C@@H](CCc1ccc(C(F)(F)F)c(Cl)c1)C(=O)O; NPrPhe(4-CF3) = CCCN[C@@H](Cc1ccc(C(F)(F)F)cc1)C(=O)O; NMeGly(cPent) = CN[C@H](C(=O)O)C1CCCC1; Hyp = O=C(O)[C@@H]1C[C@@H](O)CN1; NEtLeu = CCN[C@@H](CC(C)C)C(=O)O; NMeD = CN[C@@H](CC(=O)O)C(=O)O; Ac4c(3-oxa) = NC1(C(=O)O)COC1; NMeL = CN[C@@H](CC(C)C)C(=O)O; Morpholide = C1CN(*)CCO1; NMeA = CN[C@@H](C)C(=O)O; Ac5c = NC1(C(=O)O)CCCC1; Aze = O=C(O)[C@@H]1CCN1; NPrGly = CCCNCC(=O)O; Sar = CNCC(=O)O
Tests used:
[1] = molecular target: GDP-bound NRAS wild-type protein (Homo sapiens, UniProt P01111); assay: Binding to NRAS by surface plasmon resonance (SPR), Single Cycle Kinetics
[2] = molecular target: GDP-bound HRAS wild-type protein (Homo sapiens, UniProt P01112); assay: Binding to HRAS by surface plasmon resonance (SPR), Single Cycle Kinetics
[3] = GDP-bound NRAS wild-type vs GDP-bound KRAS wild-type, SPR
[4] = GDP-bound HRAS wild-type vs GDP-bound KRAS wild-type, SPR
[5] = KD ratio NRAS/KRAS, class symbols
[6] = KD ratio HRAS/KRAS, class symbols

GDP-bound HRAS wild-type protein, sequence (P01112 whole entry): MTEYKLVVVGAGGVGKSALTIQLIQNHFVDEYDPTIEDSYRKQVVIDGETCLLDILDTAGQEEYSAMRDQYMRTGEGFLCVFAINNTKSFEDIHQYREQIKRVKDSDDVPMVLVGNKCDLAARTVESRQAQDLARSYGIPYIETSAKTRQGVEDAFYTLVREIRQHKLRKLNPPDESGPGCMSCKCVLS
GDP-bound NRAS wild-type protein, sequence (P01111 whole entry): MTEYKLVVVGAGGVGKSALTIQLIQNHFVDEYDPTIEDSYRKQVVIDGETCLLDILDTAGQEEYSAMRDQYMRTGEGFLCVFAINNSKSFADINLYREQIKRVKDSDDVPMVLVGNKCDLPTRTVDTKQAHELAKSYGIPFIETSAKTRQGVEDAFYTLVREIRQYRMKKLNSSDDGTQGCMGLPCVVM

SMILES	NRAS/KRAS (ratio of KD value for NRAS to KD value for KRAS) [1, 3]	HRAS/KRAS (ratio of KD value for HRAS to KD value for KRAS) [2, 4]	NRAS/KRAS (ratio of KD value with respect to GDP-bound NRAS wild-type protein to KD value with respect to KRAS) ([1]; KD ratio NRAS/KRAS, SPR)	HRAS/KRAS (ratio of KD value with respect to GDP-bound HRAS wild-type protein to KD value with respect to KRAS) ([2]; KD ratio HRAS/KRAS, SPR)	further results
CCO[C@@H]1C[C@H]2C(=O)NC3(CC(C)(C)C3)C(=O)N(C)[C@@H](C3CCCC3)C(=O)N(C)[C@H](C(=O)N(CC)CC)CC(=O)N(C)[C@@H](CC)C(=O)N[C@@H]([C@@H](C)CC)C(=O)N(C)CC(=O)N(C)[C@H]3C/C=C\CCN(C3=O)[C@@H](Cc3ccc(C)cc3)C(=O)N(C)CC(=O)N[C@@H](CCc3ccc(C(F)(F)F)c(OC)c3)C(=O)N2C1 [PP1881]	A (a compound having 10 or more and less than 20 is denoted as A)	A (a compound having 10 or more and less than 20 is denoted as A)	–	–	–
CCCN1C(=O)CN(C)C(=O)CN(C)C(=O)[C@H]([C@@H](C)CC)NC(=O)[C@H](CC(C)C)N(C)C(=O)C[C@@H](C(=O)N(C)C)N(C)C(=O)[C@H](C2CCCC2)N(C)C(=O)C2(CCCC2)NC(=O)[C@@H]2C[C@@H](OCC)CN2C(=O)[C@H](CCc2ccc(C(F)(F)F)c(Cl)c2)NC(=O)CN(C)C(=O)[C@@H]1Cc1ccc(C(F)(F)F)cc1 [PP0415] ([NMeL]I[Sar][Sar][NPrPhe(4-CF3)][Sar][hPhe(3-Cl-4-CF3)][Hyp](Et)[Ac5c][NMeGly(cPent)][NMeD]-NMe2; lactam N-11)	–	–	B (a compound having 3 or more and less than 10 is denoted as B)	B (a compound having 3 or more and less than 10 is denoted as B)	–
CCCN1C(=O)CN(C)C(=O)CNC(=O)[C@H]([C@@H](C)CC)NC(=O)[C@H](CC(C)C)N(CC)C(=O)C[C@@H](C(=O)N2CCOCC2)N(C)C(=O)[C@H](C2CCCC2)N(C)C(=O)C2(CCCC2)NC(=O)[C@@H]2CCCN2C(=O)[C@H](CCc2ccc(C(F)(F)F)c(Cl)c2)NC(=O)CN(C)C(=O)[C@@H]1Cc1ccc(C(F)(F)F)cc1 [PP1967] ([NEtLeu]IG[Sar][NPrPhe(4-CF3)][Sar][hPhe(3-Cl-4-CF3)]P[Ac5c][NMeGly(cPent)][NMeD]-Morpholide; lactam N-11)	B (a compound having 3 or more and less than 10 is denoted as B)	B (a compound having 3 or more and less than 10 is denoted as B)	–	–	–
CC[C@H](C)[C@@H]1NC(=O)[C@H](CC(C)C)N(C)C(=O)C[C@@H](C(=O)N2CCOCC2)N(C)C(=O)[C@H](C2CCCC2)N(C)C(=O)C2(CCCC2)NC(=O)[C@@H]2[C@@H](O)CCN2C(=O)[C@H](CCc2cc(F)c(C(F)(F)F)c(F)c2)NC(=O)CN(C)C(=O)[C@H](Cc2ccc(C(F)(F)F)cc2)N2CCCCC[C@@H](C2=O)N(C)C(=O)CN(C)C1=O [PP0662]	–	–	B (a compound having 3 or more and less than 10 is denoted as B)	B (a compound having 3 or more and less than 10 is denoted as B)	–
CCCN(C)C(=O)[C@@H]1CC(=O)N(C)[C@@H](C2CCC2)C(=O)N[C@@H]([C@@H](C)CC)C(=O)N(C)CC(=O)N(C)[C@H]2C/C=C\CCN(C2=O)[C@@H](Cc2ccc(C(F)(F)F)cc2)C(=O)N(C)CC(=O)N[C@@H](CCc2cc(F)c(C(F)(F)F)c(F)c2)C(=O)N2C[C@H](OCC)C[C@H]2C(=O)NC2(CCC2)C(=O)N(C)[C@@H](C2CCCC2)C(=O)N1C [PP1998]	A (a compound having 10 or more and less than 20 is denoted as A)	B (a compound having 3 or more and less than 10 is denoted as B)	–	–	–
CCCN1C(=O)[C@@H]2CCN2C(=O)CN(C)C(=O)[C@H]([C@@H](C)CC)NC(=O)[C@H](CC(C)C)N(C)C(=O)C[C@@H](C(=O)N2CCOCC2)N(C)C(=O)[C@H](C2CCCC2)N(C)C(=O)C2(COC2)NC(=O)[C@@H]2CCCN2C(=O)[C@H](CCc2cc(F)c(C(F)(F)F)c(F)c2)NC(=O)CN(C)C(=O)[C@@H]1Cc1ccc(C(F)(F)F)cc1 [PP0801] ([NMeL]I[Sar][Aze][NPrPhe(4-CF3)][Sar][hPhe(3,5-F2-4-CF3)]P[Ac4c(3-oxa)][NMeGly(cPent)][NMeD]-Morpholide; lactam N-11)	–	–	C (A compound having a KD ratio of 0.1 or more and less than 3 is denoted as C)	B (a compound having 3 or more and less than 10 is denoted as B)	–
CCC[C@H]1C(=O)N[C@@H]([C@@H](C)CC)C(=O)N2CCC[C@H]2C(=O)N(C)[C@H]2C/C=C\CCN(C2=O)[C@@H](Cc2ccc(C)cc2)C(=O)N(C)CC(=O)N[C@@H](CCc2ccc(Cl)c(Cl)c2)C(=O)N2C[C@H](OC(C)C)C[C@H]2C(=O)NC2(CC(C)(C)C2)C(=O)N(C)[C@@H](C(CC)CC)C(=O)N(C)[C@H](C(=O)N(C)C)CC(=O)N1C [PP2641]	–	–	–	–	NRAS/KRAS (ratio of KD value with respect to GDP-bound NRAS wild-type protein to KD value with respect to KRAS) [1, 5]: AA (a compound having 20 or more is denoted as AA); HRAS/KRAS (ratio of KD value with respect to GDP-bound HRAS wild-type protein to KD value with respect to KRAS) [2, 6]: A (a compound having 10 or more and less than 20 is denoted as A)
CCO[C@@H]1C[C@H]2C(=O)NC3(CC(C)(C)C3)C(=O)N(C)[C@@H](C(CC)CC)C(=O)N(C)[C@H](C(=O)N(C)C)CC(=O)N(C)[C@@H](COC)C(=O)N[C@@H]([C@@H](C)CC)C(=O)N(C)CC(=O)N(C)[C@H]3C/C=C\CCN(C3=O)[C@@H](CC3CCC(F)(F)CC3)C(=O)N(C)CC(=O)N[C@@H](CCc3cc(F)c(C(F)(F)F)c(F)c3)C(=O)N2C1 [PP2440]	–	–	–	–	NRAS/KRAS (ratio of KD value with respect to NRAS to KD value with respect to KRAS) ([1]; SPR, GDP-bound NRAS wild-type vs GDP-bound KRAS wild-type): A (a compound having 10 or more and less than 20 is denoted as A); HRAS/KRAS (ratio of KD value with respect to HRAS to KD value with respect to KRAS) ([2]; SPR, GDP-bound HRAS wild-type vs GDP-bound KRAS wild-type): A (a compound having 10 or more and less than 20 is denoted as A)
CCCN1CC(=O)NC2(CCCC2)C(=O)N(C)[C@@H](C2CCCC2)C(=O)N(C)[C@H](C(=O)N2CCOCC2)CC(=O)N(C)[C@@H](CC(C)C)C(=O)N[C@@H]([C@@H](C)CC)C(=O)N(C)[C@@H](C)C(=O)N2CC[C@H]2C(=O)N(CCC)[C@@H](Cc2ccc(C(F)(F)F)cc2)C(=O)N(C)CC(=O)N[C@@H](CCc2ccc(C(F)(F)F)c(Cl)c2)C1=O [PP0288] ([NMeL]I[NMeA][Aze][NPrPhe(4-CF3)][Sar][hPhe(3-Cl-4-CF3)][NPrGly][Ac5c][NMeGly(cPent)][NMeD]-Morpholide; lactam N-11)	–	–	–	–	NRAS/KRAS (ratio of KD for GDP-bound NRAS wild-type to KD for KRAS) ([1]; KD ratio NRAS/KRAS, SPR): C (A compound having a KD ratio of 0.1 or more and less than 3 is denoted as C); HRAS/KRAS (ratio of KD for GDP-bound HRAS wild-type to KD for KRAS) ([2]; KD ratio HRAS/KRAS, SPR): B (a compound having 3 or more and less than 10 is denoted as B)
CCC[C@H]1C(=O)N[C@@H]([C@@H](C)CC)C(=O)N(C2CC2)CC(=O)N(C)[C@H]2C/C=C\CCN(C2=O)[C@@H](Cc2ccc(C(F)(F)F)cc2)C(=O)N(C)CC(=O)N[C@@H](CCc2ccc(Cl)c(Cl)c2)C(=O)N2C[C@H](OCC)C[C@H]2C(=O)NC2(CC(C)(C)C2)C(=O)N(C)[C@@H](CC(C)(C)C)C(=O)N(C)[C@H](C(=O)N(C)C)CC(=O)N1C [PP2749]	–	–	–	–	NRAS/KRAS (ratio of KD value with respect to GDP-bound NRAS wild-type protein to KD value with respect to KRAS) [1, 5]: AA (a compound having 20 or more is denoted as AA); HRAS/KRAS (ratio of KD value with respect to GDP-bound HRAS wild-type protein to KD value with respect to KRAS) [2, 6]: A (a compound having 10 or more and less than 20 is denoted as A)
